Reference: PubChem BioAssay AID248 (DTP/NCI, 2004)
Where “and” joins values, the source holds several entries; their conditions need not be identical. Equal values may be shown once. Inconclusive results and toxic doses are left out. Rule as the data show it: active = T/C of 150% or more; inactive = T/C below 125%.

Tested on: L1210 leukemia ip in BDF1 mice, survival T/C
Test: NCI In Vivo Anticancer Drug Screen. Data for tumor model L1210 Leukemia (intraperitoneal) in B6D2F1 (BDF1) mice
Conditions: endpoint: mean survival time, higher = longer survival
In short: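 Each compound was tested against a transplantable tumor grown in mice. The endpoint was survival, with treated animals benchmarked against vehicle controls as a simple ratio.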

[1] = dose: 100.0 mg/kg/injection, schedule: Q04DX003 (ip), vehicle: saline with Tween-80
[2] = dose: 200.0 mg/kg/injection, schedule: Q04DX003 (ip), vehicle: saline with Tween-80
[3] = dose: 400.0 mg/kg/injection, schedule: Q04DX003 (ip), vehicle: saline with Tween-80
[4] = dose: 25.0 mg/kg/injection, schedule: Q04DX002 (ip), vehicle: saline with Tween-80
[5] = dose: 50.0 mg/kg/injection, schedule: Q04DX002 (ip), vehicle: saline with Tween-80
[6] = dose: 100.0 mg/kg/injection, schedule: Q04DX002 (ip), vehicle: saline with Tween-80
[7] = dose: 400.0 mg/kg/injection, schedule: Q04DX002 (ip), vehicle: saline with Tween-80
[8] = dose: 100.0 mg/kg/injection, schedule: Q04DX002 (ip), vehicle: Klucel (hydroxypropylcellulose) (HPC)
[9] = dose: 200.0 mg/kg/injection, schedule: Q04DX002 (ip), vehicle: Klucel (hydroxypropylcellulose) (HPC)
[10] = dose: 400.0 mg/kg/injection, schedule: Q04DX002 (ip), vehicle: Klucel (hydroxypropylcellulose) (HPC)
[11] = dose: 50.0 mg/kg/injection, schedule: Q01DX009 (ip), vehicle: saline
[12] = dose: 100.0 mg/kg/injection, schedule: Q01DX009 (ip), vehicle: saline
[13] = dose: 100.0 mg/kg/injection, schedule: Q04DX003 (ip), vehicle: saline
[14] = dose: 200.0 mg/kg/injection, schedule: Q01DX009 (ip), vehicle: saline
[15] = dose: 200.0 mg/kg/injection, schedule: Q04DX003 (ip), vehicle: saline
[16] = dose: 400.0 mg/kg/injection, schedule: Q04DX003 (ip), vehicle: saline
[17] = dose: 100.0 mg/kg/injection, schedule: Q01DX009 (ip), vehicle: Klucel (hydroxypropylcellulose) (HPC)
[18] = dose: 200.0 mg/kg/injection, schedule: Q01DX009 (ip), vehicle: Klucel (hydroxypropylcellulose) (HPC)
[19] = dose: 400.0 mg/kg/injection, schedule: Q01DX009 (ip), vehicle: Klucel (hydroxypropylcellulose) (HPC)
[20] = dose: 100.0 mg/kg/injection, schedule: Q04DX002 (ip), vehicle: saline
[21] = dose: 200.0 mg/kg/injection, schedule: Q04DX002 (ip), vehicle: saline
[22] = dose: 100.0 mg/kg/injection, schedule: Q01DX001 (ip), vehicle: Klucel (hydroxypropylcellulose) (HPC)

Measured: T/C

CCCC#CC(O)(C(=O)OC)c1ccccc1 (centres undefined)
inactive: dose: 100.0 mg/kg/injection, schedule: Q01DX001 (ip), vehicle: other 102 % of control | dose: 200.0 mg/kg/injection, schedule: Q01DX001 (ip), vehicle: other 103 % of control | dose: 400.0 mg/kg/injection, schedule: Q01DX001 (ip), vehicle: other 105 % of control

CC(=O)c1cccc([N+](=O)[O-])c1
inactive: dose: 100.0 mg/kg/injection, schedule: Q01DX009 (ip), vehicle: other 91 % of control | dose: 100.0 mg/kg/injection, schedule: Q04DX003 (ip), vehicle: other 102 % of control | [1] 105 % of control | dose: 200.0 mg/kg/injection, schedule: Q01DX009 (ip), vehicle: other 105 % of control | dose: 200.0 mg/kg/injection, schedule: Q04DX003 (ip), vehicle: other 100 % of control | [2] 106 % of control | dose: 400.0 mg/kg/injection, schedule: Q04DX003 (ip), vehicle: other 94 % of control | [3] 108 % of control

CC(C)(C)C(O)c1ccccc1 (centres undefined)
inactive: [4] 97 % of control | [5] 93 % of control | [6] 93 % of control and 92 % of control | dose: 200.0 mg/kg/injection, schedule: Q04DX002 (ip), vehicle: saline with Tween-80 93 % of control and 95 % of control | [7] 95 % of control

O=[N+]([O-])c1ccccc1Sc1ccc2c3c(cccc13)CN(CCCO)C2
inactive: [8] 90 % of control | [9] 108 % of control | [10] 104 % of control

FC(F)(F)c1cccc(B2OCCNCCO2)c1
inactive: [1] 106 % of control | [2] 95 % of control

CCOC(=O)/C(Cc1ccc2ccccc2n1)=N/O
inactive: [11] 93 % of control | [12] 98 % of control | [13] 98 % of control | [14] 87 % of control | [15] 96 % of control | [16] 93 % of control

Cc1cc(Cl)ccc1NC(=O)c1ccccc1Cl
inactive: [17] 101 % of control | [13] 109 % of control | [18] 90 % of control | [15] 106 % of control | [19] 89 % of control | [16] 106 % of control

CCC(C)NC(=O)/C=C/C(=O)NC(C)CC (centres undefined)
inactive: [1] 91 % of control | [2] 100 % of control | [3] 100 % of control

Clc1ccc(/C=N/c2snc3ccccc23)cc1Cl
inactive: [8] 92 % of control | [9] 89 % of control | [10] 86 % of control

NNC(=O)OCc1ccccc1
inactive: [4] 100 % of control | [5] 100 % of control | [6] 100 % of control

c1cc[c]([Sn]([c]2ccccc2)([c]2ccccc2)[n]2cncn2)cc1
inactive: dose: 6.25 mg/kg/injection, schedule: Q04DX002 (ip), vehicle: saline with Tween-80 101 % of control | dose: 12.5 mg/kg/injection, schedule: Q04DX002 (ip), vehicle: saline with Tween-80 93 % of control | [4] 112 % of control

CCN(CC)CCOC(=O)c1ccco1
inactive: [11] 96 % of control | [12] 103 % of control | [14] 100 % of control

Cc1ccc(NC(c2cc(Br)ccc2O)P(=O)(c2ccccc2)c2ccccc2)c([N+](=O)[O-])c1 (centres undefined)
inactive: [17] 93 % of control | [18] 96 % of control | [19] 96 % of control

CC(C)(C)OC(=O)NO
inactive: [12] 103 % of control | [20] 110 % of control | [13] 104 % of control | [14] 100 % of control | [21] 98 % of control | [15] 104 % of control | dose: 400.0 mg/kg/injection, schedule: Q01DX009 (ip), vehicle: saline 108 % of control | dose: 400.0 mg/kg/injection, schedule: Q04DX002 (ip), vehicle: saline 110 % of control | [16] 106 % of control

C=CCc1cc(Nc2c3ccc(Cl)cc3nc3ccc(OC)cc23)cc(CN(CC)CC)c1O
inactive: dose: 50.0 mg/kg/injection, schedule: Q04DX002 (ip), vehicle: saline 106 % of control | [20] 98 % of control | [21] 98 % of control

CCCCN(C)N=Nc1ccccc1C(=O)NN
inactive: dose: 100.0 mg/kg/injection, schedule: Q01DX001 (ip), vehicle: carboxymethylcellulose (CMC) 96 % of control | dose: 200.0 mg/kg/injection, schedule: Q01DX001 (ip), vehicle: carboxymethylcellulose (CMC) 107 % of control | dose: 400.0 mg/kg/injection, schedule: Q01DX001 (ip), vehicle: carboxymethylcellulose (CMC) 113 % of control

O=C(O)c1cccc2cccc(-c3c4ccc(=O)c(O)c-4oc4c(O)c(O)ccc34)c12
inactive: [1] 91 % of control | [2] 92 % of control | [3] 89 % of control

Cc1cc(NC(=O)NCCCl)c2c(c1C)CCCC2
inactive: dose: 20.0 mg/kg/injection, schedule: Q01DX001 (ip), vehicle: Klucel (hydroxypropylcellulose) (HPC) 100 % of control | dose: 40.0 mg/kg/injection, schedule: Q01DX001 (ip), vehicle: Klucel (hydroxypropylcellulose) (HPC) 96 % of control | [22] 90 % of control

O=C(c1ccccc1)C1CCC1
inactive: [17] 92 % of control | [13] 101 % of control | [18] 98 % of control | [15] 97 % of control | [19] 92 % of control | [16] 97 % of control

COC(=O)c1cc2c(cc1N=Cc1ccccc1Cl)OCO2
inactive: dose: 75.0 mg/kg/injection, schedule: Q04DX003 (ip), vehicle: Klucel (hydroxypropylcellulose) (HPC) 101 % of control | [22] 97 % of control | dose: 150.0 mg/kg/injection, schedule: Q04DX003 (ip), vehicle: Klucel (hydroxypropylcellulose) (HPC) 98 % of control | dose: 200.0 mg/kg/injection, schedule: Q01DX001 (ip), vehicle: Klucel (hydroxypropylcellulose) (HPC) 95 % of control | dose: 300.0 mg/kg/injection, schedule: Q04DX003 (ip), vehicle: Klucel (hydroxypropylcellulose) (HPC) 97 % of control | dose: 400.0 mg/kg/injection, schedule: Q01DX001 (ip), vehicle: Klucel (hydroxypropylcellulose) (HPC) 95 % of control

CCCCC(CC)COc1nc(OCC(CC)CCCC)nc(OCC(CC)CCCC)n1 (centres undefined)
inactive: dose: 25.6 mg/kg/injection, schedule: Q04DX002 (ip), vehicle: saline with Tween-80 91 % of control | dose: 64.0 mg/kg/injection, schedule: Q04DX002 (ip), vehicle: saline with Tween-80 91 % of control | [1] 88 % of control | dose: 160.0 mg/kg/injection, schedule: Q04DX002 (ip), vehicle: saline with Tween-80 91 % of control | [2] 92 % of control | [7] 87 % of control | [3] 87 % of control

CCOC(=O)/C(O)=C\c1nnc(Cl)cc1Cl
inactive: dose: 75.0 mg/kg/injection, schedule: Q04DX002 (ip), vehicle: Klucel (hydroxypropylcellulose) (HPC) 93 % of control | dose: 150.0 mg/kg/injection, schedule: Q04DX002 (ip), vehicle: Klucel (hydroxypropylcellulose) (HPC) 96 % of control | dose: 300.0 mg/kg/injection, schedule: Q04DX002 (ip), vehicle: Klucel (hydroxypropylcellulose) (HPC) 116 % of control
